Data as given in article PMC6429183, “Identification of Compounds That Inhibit Estrogen-Related Receptor Alpha Signaling Using High-Throughput Screening Assays” (Molecules, 2019).
Values joined by “and” are separate entries in the source; they are usually repeats but may differ in a detail not shown here. Equal values may be shown once. Read-outs that look alike come from different tables or passages of the source.

Columns and labels:
[1] = system: PGC/ERR reporter HEK293 cells; assay: CellTiter-Fluor cell viability assay multiplexed with PGC/ERR reporter assay; format: cell-based; settings: for EC50: Homo sapiens; for PGC/ERR-HEK293 Follow-Up Viability EC50: follow-up screen; for PGC/ERR-HEK293 Primary Viability EC50: primary qHTS
Protocol: (§1) ERR or PGC/ERR reporter HEK293 cells suspended in culture medium without puromycin were dispensed at 2500 cells/5 μL/well in tissue culture–treated 1536-well white assay plates (Greiner Bio-One North America, Monroe, NC, USA) using a Thermo Scientific Multidrop Combi (ThermoFisher Scientific, Inc.). […] After the cells were incubated at 37 °C with 5% CO2 for 6 h, 23 nL of compounds or control, XTC790, was transferred into the assay plates using a Wako Pintool station (Wako Automation, San Diego, CA, USA). The assay plates were incubated at 37 °C for 18 h, followed by the addition of 5 μL ONE-Glo luciferase reagent (Promega, Madison, WI, USA) using a Flying Reagent Dispenser (Aurora Discovery, Carlsbad, CA, USA). After 30 min of incubation at room temperature, the luminescence intensity of the assay plates was quantified using a ViewLux plate reader (PerkinElmer, Shelton, CT, USA). The assays were performed three times for each compound concentration. These ERR and PGC/ERR reporter assays were multiplexed with the CellTiter-Fluor Cell Viability Assay (Promega), a fluorescence-based cell viability assay, to assess compound cytotoxicity.
The qHTS data were analyzed as described previously. Each titration point was normalized relative to the positive control compound (XCT790 = −100%) and DMSO-only wells (0%) according to the following equation: % Activity = [(Vcompound − VDMSO)/(VDMSO − Vpos)] × 100, where Vcompound denotes the compound well values, Vpos denotes the median value of the positive control wells, and VDMSO denotes the median values of the DMSO-only wells. The DMSO-only compound plates at the beginning and end of the compound plate stack were used to correct the data set by applying an in-house pattern correction algorithm. The half maximum inhibition values (IC50) for each compound and maximum response (efficacy) values were obtained by fitting the concentration-response curves of each compound to a four-parameter Hill equation [91]. Compounds were designated as Class 1–4 according to the type of concentration–response curve observed. For each reading, the activity outcome of a test compound was first categorized by the average curve rank from the triplicate runs and the reproducibility calls. The final activity outcome of each compound was based on the ERR antagonist readout activity and cell viability counter screen.

[2] = system: IDH3α; assay: qRT-PCR mRNA expression of ERR downstream gene IDH3α; format: cell-based; settings: ERR reporter cells, vs GAPDH, DMSO = 0%
Protocol: (§2) Total RNA was isolated from treated ERR reporter cells using an RNeasy Mini Kit (Qiagen, Germantown, MD, USA), homogenized using a QIAshredder (Qiagen), and reverse transcribed with a High-Capacity RNA-to-cDNA™ Kit (ThermoFisher Scientific, Inc.) following the manufacturers’ instructions. Expression of ERRα, COX8α, IDH3α, PPARα, COX4I1, and cytochrome c genes was normalized against GAPDH. All primers were purchased from ThermoFisher Scientific, Inc. Real-time PCR assays were performed in 384-well plates on a QuantStudio 5 (Applied Biosystems, Foster City, CA, USA) with TaqMan™ Gene Expression Master Mix (ThermoFisher Scientific, Inc.). Induction values were calculated using the equation: Fold = 2^ΔΔCt, where ΔCt represents the differences in cycle threshold numbers between each of the target genes and GAPDH, and ΔΔCt represents the relative change in these differences between control and treatment groups. Experimental data are presented as a mean of triplicate determinations ± SD. Statistical comparisons were made by t-test, while the statistical significance was set at p values of <0.05 (light blue), <0.01 (medium blue), and <0.001 (dark blue).

[3] = target: T1, estrogen-related receptor alpha (ERRα) (Homo sapiens, UniProt P11474); assay: ERR reporter (luciferase) antagonist qHTS assay, ERR-HEK293; settings: for EC50: mean ± SD, triplicate; for ERR-HEK293 Follow-Up Efficacy: follow-up screen; for ERR-HEK293 Follow-Up Efficacy / ERR-HEK293 Primary Efficacy: relative to XCT790 = −100%; for activity in the ERR assay: in words; for ERR-HEK293 Primary Efficacy: primary qHTS, DMSO = 0%
T1 sequence (P11474 1-423): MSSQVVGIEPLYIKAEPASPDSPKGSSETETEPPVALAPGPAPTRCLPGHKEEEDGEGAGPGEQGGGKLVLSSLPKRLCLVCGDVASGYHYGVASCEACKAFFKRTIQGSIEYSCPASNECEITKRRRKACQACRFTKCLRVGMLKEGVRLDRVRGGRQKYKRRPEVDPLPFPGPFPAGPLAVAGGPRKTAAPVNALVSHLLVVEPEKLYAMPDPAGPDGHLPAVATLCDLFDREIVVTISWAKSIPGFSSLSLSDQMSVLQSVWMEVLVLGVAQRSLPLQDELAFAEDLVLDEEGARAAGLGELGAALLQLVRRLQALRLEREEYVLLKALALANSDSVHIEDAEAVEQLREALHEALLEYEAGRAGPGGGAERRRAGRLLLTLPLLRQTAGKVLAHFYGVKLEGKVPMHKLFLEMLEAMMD
Protocol: (§3) The ERR reporter HEK293 cells were cultured in high glucose DMEM medium (ThermoFisher Scientific, Inc., Waltham, MA, USA) supplemented with 10% fetal bovine serum (FBS; ThermoFisher Scientific, Inc.), 4 mM of L-glutamine (ThermoFisher Scientific, Inc.), 1 mM of sodium pyruvate (ThermoFisher Scientific, Inc.), 100 U/mL of penicillin and 100 mg/mL of streptomycin (ThermoFisher Scientific, Inc.). PGC/ERR reporter HEK293 cells were cultured in the same medium as the ERR reporter HEK293 cells with an additional 1 μg/mL puromycin (ThermoFisher Scientific, Inc.) as the selection marker for PGC-1α expression.
(§4) The DMSO-only compound plates at the beginning and end of the compound plate stack were used to correct the data set by applying an in-house pattern correction algorithm [90]. The half maximum inhibition values (IC50) for each compound and maximum response (efficacy) values were obtained by fitting the concentration-response curves of each compound to a four-parameter Hill equation [91]. […] For each reading, the activity outcome of a test compound was first categorized by the average curve rank from the triplicate runs and the reproducibility calls. The final activity outcome of each compound was based on the ERR antagonist readout activity and cell viability counter screen.

[4] = target: T2, ERRα with PGC-1α (PGC/ERR pathway) (Homo sapiens, UniProt P11474); assay: PGC/ERR reporter (luciferase) qHTS assay, PGC/ERR-HEK293; settings: for EC50: mean ± SD, triplicate; for PGC/ERR-HEK293 Follow-Up Efficacy: follow-up screen; for PGC/ERR-HEK293 Follow-Up Efficacy / PGC/ERR-HEK293 Primary Efficacy: negative = antagonism, positive = agonism; for activity in the ERR/PGC assay: in words; for PGC/ERR-HEK293 Primary Efficacy: primary qHTS
T2 sequence (P11474 1-423): T1 sequence (P11474 1-423)

[5] = system: COX4I1; assay: qRT-PCR mRNA expression of ERR downstream gene COX4I1; format: cell-based; settings: ERR reporter cells, vs GAPDH, DMSO = 0%
Protocol: as §2, with “Experimental data are presented as a mean of triplicate determinations ± SD. Statistical comparisons were made by t-test, while the statistical significance was set at p values of <0.05 (light blue), <0.01 (medium blue), and <0.001 (dark blue).” left out

[6] = system: cytochrome c; assay: qRT-PCR mRNA expression of ERR downstream gene cytochrome c; format: cell-based; settings: ERR reporter cells, vs GAPDH, DMSO = 0%
Protocol: as §2

[7] = system: ERR reporter HEK293 cells; assay: CellTiter-Fluor cell viability assay multiplexed with ERR reporter assay; format: cell-based; settings: for EC50: Homo sapiens; for ERR-HEK293 Follow-Up Viability EC50: follow-up screen
Protocol: as §1
The qHTS data were analyzed as described previously. […] The DMSO-only compound plates at the beginning and end of the compound plate stack were used to correct the data set by applying an in-house pattern correction algorithm. The half maximum inhibition values (IC50) for each compound and maximum response (efficacy) values were obtained by fitting the concentration-response curves of each compound to a four-parameter Hill equation [91]. […] For each reading, the activity outcome of a test compound was first categorized by the average curve rank from the triplicate runs and the reproducibility calls. The final activity outcome of each compound was based on the ERR antagonist readout activity and cell viability counter screen.

[8] = target: T2, ERRα with PGC-1α (PGC/ERR pathway)
[9] = target: T1, estrogen-related receptor alpha (ERRα)
Protocol: as §3, §4

[10] = system: COX8α; assay: qRT-PCR mRNA expression of ERR downstream gene COX8α; format: cell-based; settings: 2 µM; ERR reporter cells; vs GAPDH, DMSO = 0%
Protocol: as §2

[11] = system: Nrf2/antioxidant response element (ARE); assay: Nrf2/ARE-HepG2 β-lactamase reporter agonist assay; format: cell-based; settings: agonist mode, heatmap outcome
Protocol: After the assay plates were incubated at 37 °C for 5–6 h, 23 nL of compounds dissolved in DMSO or positive controls were transferred to the assay plates via a Wako Pintool station (Wako). Except for ARE and p53, all other assays received 1 µL/well agonist (10 nM R1881 for AR; 0.5 and 5 nM β-estradiol for ERα and ERβ respectively; 300 µM CDCA for FXR; 50 nM Rosiglitazone for PPARγ; and 5 nM R5020 for PR) or assay medium using a Flying Reagent Dispenser (FRD). The assay plates were incubated for 16 h (AR, Nrf2/ARE, ERβ, FXR, p53, and PR), 17 h (PPARγ), or 18 h (ERα) at 37 °C, and 1 µL/well LiveBLAzer™ FRET-B/G CCF4-AM substrate (ThermoFisher Scientific, Inc.) detection mix was added using an FRD and the plates were incubated at room temperature for 2 h. […] Data were expressed as the ratio of 460/530 nm emission values.

[12] = HEK293, primary qHTS, read-out: PGC/ERR-HEK293 Primary Viability EC50 (converted)
[13] = ERR-HEK293 Follow-Up EC50, follow-up (confirmation) screen
[14] = ERR-HEK293 Primary EC50, primary qHTS, 18 h, 15 concentrations
[15] = PGC/ERR-HEK293 Follow-Up EC50, follow-up screen
[16] = PGC/ERR-HEK293 Primary EC50, primary qHTS, 18 h
[17] = primary qHTS, viability counter screen

SMILES | EC50 [1, 12] [nM] | EC50 [3, 13] [nM] | EC50 [3, 14] [nM] | ERR-HEK293 Follow-Up Efficacy [3] [%] | activity in the ERR assay [3] | ERR-HEK293 Primary Efficacy [3] [%] | EC50 [4, 15] [nM] | EC50 [4, 16] [nM] | PGC/ERR-HEK293 Follow-Up Efficacy [4] [%] | activity in the ERR/PGC assay [4] | PGC/ERR-HEK293 Primary Efficacy [4] [%] | ERR-HEK293 Primary Viability EC50 [7, 17] | PGC/ERR-HEK293 Follow-Up Viability EC50 [1] | PGC/ERR-HEK293 Follow-Up Efficacy [8] [%] | PGC/ERR-HEK293 Primary Efficacy [8] [%] | ERR-HEK293 Follow-Up Efficacy [9] [%] | ERR-HEK293 Primary Efficacy [9] [%] | ERR-HEK293 Follow-Up Viability EC50 [7] | PGC/ERR-HEK293 Primary Viability EC50 [1] | also measured
C=C(C)[C@H]1Cc2c(ccc3c2O[C@@H]2COc4cc(OC)c(OC)cc4[C@@H]2C3=O)O1 [Rotenone] | 1010 | 16 ± 6.71 | 13.3 ± 4.76 | −95.8 ± 17.8 | potent antagonists | −92.4 ± 3.03 | 61.8 ± 61 | 7.42 ± 2.07 | −41.9 ± 8.70 | antagonism | −31.0 ± 4.14 | Inactive | – | – | – | – | – | – | – | EC50 ([1]; HEK293, follow-up screen, read-out: PGC/ERR-HEK293 Follow-Up Viability EC50 (converted)): 2970 nM; Percent inhibition of mRNA gene expression, IDH3α ([2]; 175 nM): 22.4% and 22.4 ± 3.14%; Percent inhibition of mRNA gene expression, COX4I1 ([5]; 175 nM): 2.34 ± 3.78%; Percent inhibition of mRNA gene expression, Cytochrome C ([6]; 175 nM): 27.3% and 27.3 ± 7.33%; EC50 ([7]; HEK293, read-out: ERR-HEK293 Follow-Up Viability EC50): 429 nM
Cc1nc2ccccc2n1Cc1ccc(Cl)cc1 [Chlormidazole] | – | – | – | – | – | – | – | – | – | – | – | – | – | – | – | – | – | – | – | Percent inhibition of mRNA gene expression, IDH3α ([2]; 5 µM): 23.8 ± 3.17%; Percent inhibition of mRNA gene expression, COX4I1 ([5]; 5 µM): 4.71 ± 5.09%; Percent inhibition of mRNA gene expression, Cytochrome C ([6]; 5 µM): 35.8 ± 3.92%
COC(=O)N(OC)c1ccccc1COc1ccn(-c2ccc(Cl)cc2)n1 [Pyraclostrobin] | 74500 | 762 | 239 ± 130 | – | – | – | 539 ± 760 | 838 ± 771 | – | – | – | – | Inactive | −42.1 ± 9.82 | −58.2 ± 4.17 | −80.0 ± 5.67 | −90.7 ± 11.9 | Inactive | – | Percent inhibition of mRNA gene expression, IDH3α ([2]; 1 µM): 5.06 ± 5.03%; Percent inhibition of mRNA gene expression, Cytochrome C ([6]; 1 µM): 11.0 ± 8.54%; EC50 ([7]; HEK293, primary qHTS, viability counter screen, read-out: ERR-HEK293 Primary Viability EC50 (converted)): 40900 nM
CC(C)(C)c1ccc(CSc2cnn(C(C)(C)C)c(=O)c2Cl)cc1 [Pyridaben] | – | 24.5 ± 9.42 | 5.92 ± 0.815 | – | potent antagonists | – | 43.4 ± 20 | 7.81 ± 3.01 | – | antagonism | – | Inactive | Inactive | −63.1 ± 29.7 | −57.6 ± 8.49 | −94.1 ± 13.4 | −77.3 ± 4.10 | Inactive | Inactive | Percent inhibition of mRNA gene expression, IDH3α ([2]; 15 nM): 14.6%
CO/N=C(/C(=O)OC)c1ccccc1COc1ccccc1C [Kresoxim-methyl] | – | 8310 ± 3290 | 5650 ± 6960 | – | – | – | 17700 ± 6040 | 7660 ± 6870 | – | – | – | Inactive | Inactive | −61.1 ± 10.0 | −56.7 ± 8.51 | −102 ± 1.40 | −86.6 ± 21.1 | Inactive | Inactive | Percent inhibition of mRNA gene expression, COX8α [10]: 9.70 ± 12.8%; Percent inhibition of mRNA gene expression, IDH3α ([2]; 2 µM): 8.26 ± 19.3%; Percent inhibition of mRNA gene expression, Cytochrome C ([6]; 2 µM): 9.31 ± 0.48%
C[C@@H]1CC[C@H]2[C@@H](C)C(=O)O[C@@H]3O[C@@]4(C)CC[C@@H]1[C@]32OO4 [Artemisinin] | – | 2440 ± 1220 | 1010 ± 297 | −83.7 ± 14.6 | – | −71.6 ± 5.57 | 14500 ± 10800 | 1780 ± 401 | −72.8 ± 22.0 | antagonism | −57.6 ± 2.03 | Inactive | – | – | – | – | – | Inactive | – | activity in the Nrf2-ARE assay [11]: active agonists; Percent inhibition of mRNA gene expression, IDH3α ([2]; 7 µM): 30.2%; ERR-HEK293 Primary Efficacy ([3]; listed as artemisinin): −71.6%; Percent inhibition of mRNA gene expression, Cytochrome C ([6]; 7 µM): 36.2%
